Source: patent publication US7994140B2, “Classes of compounds that interact with GPCRs” (Alchemia Limited, priority 2002, dated 2011)

Each compound was assayed against T1, MC4 (Homo sapiens, UniProt P32245) (assay: GPCR radioligand binding (RLB) assay, melanocortin MC4, [125I]NDP-αMSH). Settings: 4.0 Micromolar; Example Library 10.
T1 construct: purchased Perkin Elmer BioSignal; host or cells: HEK 293
Experimental: Recombinant human receptors expressed in HEK 293 cells were used for all experiments. Receptor membrane preparations were purchased from Perkin Elmer BioSignal. The labelled ligand used in somatostatin GPCR RLB assays was [^125I]SST-14 and in melanocortin assays was [^125I]NDP-αMSH. All assays were done in a 96-well plate format using either glass fiber filter mats or filter plates. All reagents purchased were of the highest quality.
Specific assay buffer, incubation and washing conditions were optimized for each receptor however they all followed the same general format. The procedures for both filter mat and filter plate formats are based on the receptor manufacturers recommendations or those described extensively in the literature. The procedures are briefly outlined below.
In assays where filter mats are used we incubate receptor membranes, assay buffer and [^125I] labelled ligand in 96 well microplates. Add compounds to incubation mixture and continue incubation for optimized period. Presoak Filter mat GF/B in 0.5% PEI for ˜2 hr at 4° C. On completion of assay mixture incubation add additional 100 μL/well of assay buffer immediately prior to filtration. Filter the assay mixture onto the GF/B filter mat using a cell harvester. Dry the filter mats prior to sealing them into a scintillation counting bag with scintillant. Radioactivity in each well is detected by liquid scintillation counting.
In assays where filter plates are used Multiscreen glass fiber filter plates (Millipore, Cat No MAFCNOB10) are precoated with 0.5% PEI for ˜2 hr at 4° C. All wells are then washed with 200 µl/well assay buffer and filtered using the Multiscreen Separation System. Subsequently receptor membranes, assay buffer and labelled ligands are added to the wells and equilibrated. Compounds for testing are then added to the mixture and incubation is continued for an optimized time. Plates are then put into the Multiscreen Separation System and the assay mixture is filtered through the plate under vacuum. Each well is then washed several times with assay buffer. Plates are then dried prior to putting sealing tape onto the bottom of the plate. Scintillant is added to each well and radioactivity measured by liquid scintillation counting.
Raw data was analysed according to standard methods using either GraphPad Prism software or IDDBS ActivityBase software.

T1 sequence (P32245 whole entry): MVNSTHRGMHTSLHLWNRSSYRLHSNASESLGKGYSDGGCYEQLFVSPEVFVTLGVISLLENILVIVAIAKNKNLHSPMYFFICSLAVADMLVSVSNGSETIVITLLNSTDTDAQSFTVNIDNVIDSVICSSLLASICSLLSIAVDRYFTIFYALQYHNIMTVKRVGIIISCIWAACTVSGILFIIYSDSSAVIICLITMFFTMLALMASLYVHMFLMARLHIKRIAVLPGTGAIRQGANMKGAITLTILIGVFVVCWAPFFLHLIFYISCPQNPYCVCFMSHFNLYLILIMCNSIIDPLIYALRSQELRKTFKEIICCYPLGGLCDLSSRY

SMILES | MC4 Inhibition at 4.0 Micromolar
NCCCC(=O)N[C@H]1C(OCc2ccc(Cl)cc2)O[C@H](COCc2ccc(Cl)cc2)[C@@H](O)[C@@H]1OCc1ccc2ccccc2c1 (single isomer, unassigned) [Compound 394] | + (Indicates inhibition greater than . . . 50%)

Same assay, conditions: 10 micromolar compound; recombinant human receptor membranes (HEK 293)

SMILES | MC4 inhibition at 10 micromolar
COC[C@H]1OC(OCc2ccccc2)[C@H](NC(=O)CNC(=N)N)[C@@H](OCc2ccc(-c3ccccc3)cc2)[C@@H]1O (stereo partly drawn) [Compound 5] | + (Indicates inhibition greater than . . . 50%)
COC[C@H]1OC(OCCc2ccccc2)[C@H](NC(=O)CNC(=N)N)[C@@H](OCc2ccc(-c3ccccc3)cc2)[C@@H]1O (stereo partly drawn) [Compound 19] | + (Indicates inhibition greater than . . . 50%)
COC[C@H]1OC(OCCc2ccccc2)[C@H](NC(=O)CCNC(=N)N)[C@@H](OCc2ccc(-c3ccccc3)cc2)[C@@H]1O (stereo partly drawn) [Compound 20] | + (Indicates inhibition greater than . . . 50%)
CO[C@H]1[C@H](O)[C@@H](COCc2ccc(-c3ccccc3)cc2)OC(OCc2ccc(-c3ccccc3)cc2)[C@@H]1NC(=O)CCCNC(=N)N (stereo partly drawn) [Compound 58] | + (Indicates inhibition greater than . . . 50%)
CO[C@H]1[C@H](O)[C@@H](COCc2ccc3ccccc3c2)OC(OCc2ccc(-c3ccccc3)cc2)[C@@H]1NC(=O)CNC(=N)N (stereo partly drawn) [Compound 59] | + (Indicates inhibition greater than . . . 50%)
COC1C(O)C(COCc2ccc3ccccc3c2)OC(OCc2ccc(-c3ccccc3)cc2)C1NC(=O)CCCNC(=N)N (stereo not drawn) [Compound 62] | + (Indicates inhibition greater than . . . 50%)
COC1C(O)C(COCc2ccc(Cl)cc2)OC(OCc2ccc(-c3ccccc3)cc2)C1NC(=O)CNC(=N)N (stereo not drawn) [Compound 63] | + (Indicates inhibition greater than . . . 50%)
COC1C(O)C(COCc2ccc(Cl)cc2)OC(OCc2ccc(-c3ccccc3)cc2)C1NC(=O)CCNC(=N)N (stereo not drawn) [Compound 64] | + (Indicates inhibition greater than . . . 50%)
COC1C(O)C(COCc2ccc(Cl)cc2)OC(OCc2ccc(-c3ccccc3)cc2)C1NC(=O)CCCN (stereo not drawn) [Compound 65] | + (Indicates inhibition greater than . . . 50%)
COC1C(O)C(COCc2ccc(Cl)cc2)OC(OCc2ccc(-c3ccccc3)cc2)C1NC(=O)CCCNC(=N)N (stereo not drawn) [Compound 66] | + (Indicates inhibition greater than . . . 50%)
COC1C(O)C(COCc2ccc(-c3ccccc3)cc2)OC(OCc2ccc3ccccc3c2)C1NC(=O)CNC(=N)N (stereo not drawn) [Compound 67] | + (Indicates inhibition greater than . . . 50%)
COC1C(O)C(COCc2ccc(-c3ccccc3)cc2)OC(OCc2ccc3ccccc3c2)C1NC(=O)CCNC(=N)N (stereo not drawn) [Compound 68] | + (Indicates inhibition greater than . . . 50%)
COC1C(O)C(COCc2ccc(-c3ccccc3)cc2)OC(OCc2ccc3ccccc3c2)C1NC(=O)CCCNC(=N)N (stereo not drawn) [Compound 70] | + (Indicates inhibition greater than . . . 50%)
COC1C(O)C(COCc2ccc3ccccc3c2)OC(OCc2ccc3ccccc3c2)C1NC(=O)CNC(=N)N (stereo not drawn) [Compound 71] | + (Indicates inhibition greater than . . . 50%)
COC1C(O)C(COCc2ccc3ccccc3c2)OC(OCc2ccc3ccccc3c2)C1NC(=O)CCNC(=N)N (stereo not drawn) [Compound 72] | + (Indicates inhibition greater than . . . 50%)
COC1C(O)C(COCc2ccc3ccccc3c2)OC(OCc2ccc3ccccc3c2)C1NC(=O)CCCNC(=N)N (stereo not drawn) [Compound 74] | + (Indicates inhibition greater than . . . 50%)
COC1C(O)C(COCc2ccc(Cl)cc2)OC(OCc2ccc3ccccc3c2)C1NC(=O)CNC(=N)N (stereo not drawn) [Compound 75] | + (Indicates inhibition greater than . . . 50%)
COC1C(O)C(COCc2ccc(Cl)cc2)OC(OCc2ccc3ccccc3c2)C1NC(=O)CCNC(=N)N (stereo not drawn) [Compound 76] | + (Indicates inhibition greater than . . . 50%)
COC1C(O)C(COCc2ccc(Cl)cc2)OC(OCc2ccc3ccccc3c2)C1NC(=O)CCCNC(=N)N (stereo not drawn) [Compound 78] | + (Indicates inhibition greater than . . . 50%)
COC1C(O)C(COCc2ccc(-c3ccccc3)cc2)OC(OCc2ccccc2)C1NC(=O)CCCNC(=N)N (stereo not drawn) [Compound 79] | + (Indicates inhibition greater than . . . 50%)
COC1C(O)C(COCc2ccc(Cl)cc2)OC(OCc2ccccc2)C1NC(=O)CCCN (stereo not drawn) [Compound 81] | + (Indicates inhibition greater than . . . 50%)

SMILES | MC4 inhibition at 10 micromolar
COC1C(O)C(COCc2ccc(Cl)cc2)OC(OCc2ccccc2)C1NC(=O)CCCNC(=N)N (stereo not drawn) [Compound 82] | + (Indicates inhibition greater than . . . 50%)
COC1C(O)C(COCc2ccc(-c3ccccc3)cc2)OC(OCc2ccc(Cl)cc2)C1NC(=O)CNC(=N)N (stereo not drawn) [Compound 83] | + (Indicates inhibition greater than . . . 50%)
COC1C(O)C(COCc2ccc(-c3ccccc3)cc2)OC(OCc2ccc(Cl)cc2)C1NC(=O)CCCN (stereo not drawn) [Compound 85] | + (Indicates inhibition greater than . . . 50%)
CO[C@H]1[C@H](O)[C@@H](COCc2ccc(Cl)cc2)OC(OCc2ccc(Cl)cc2)[C@@H]1NC(=O)CNC(=N)N (stereo partly drawn) [Compound 92] | + (Indicates inhibition greater than . . . 50%)
CO[C@H]1[C@H](O)[C@@H](COCc2ccc(Cl)cc2)OC(OCc2ccc(Cl)cc2)[C@@H]1NC(=O)CCNC(=N)N (stereo partly drawn) [Compound 93] | + (Indicates inhibition greater than . . . 50%)
CO[C@H]1[C@H](O)[C@@H](COCc2ccc(Cl)cc2)OC(OCc2ccc(Cl)cc2)[C@@H]1NC(=O)CCCNC(=N)N (stereo partly drawn) [Compound 95] | + (Indicates inhibition greater than . . . 50%)
CO[C@H]1[C@H](O)[C@@H](COCc2ccc(-c3ccccc3)cc2)OC(OCCc2ccccc2)[C@@H]1NC(=O)CNC(=N)N (stereo partly drawn) [Compound 96] | + (Indicates inhibition greater than . . . 50%)
CO[C@H]1[C@H](O)[C@@H](COCc2ccc(-c3ccccc3)cc2)OC(OCCc2ccccc2)[C@@H]1NC(=O)CCNC(=N)N (stereo partly drawn) [Compound 97] | + (Indicates inhibition greater than . . . 50%)
CO[C@H]1[C@H](O)[C@@H](COCc2ccc(-c3ccccc3)cc2)OC(OCCc2ccccc2)[C@@H]1NC(=O)CCCNC(=N)N (stereo partly drawn) [Compound 99] | + (Indicates inhibition greater than . . . 50%)
CO[C@H]1[C@H](O)[C@@H](COCc2ccc3ccccc3c2)OC(OCCc2ccccc2)[C@@H]1NC(=O)CNC(=N)N (stereo partly drawn) [Compound 100] | + (Indicates inhibition greater than . . . 50%)
CO[C@H]1[C@H](O)[C@@H](COCc2ccc3ccccc3c2)OC(OCCc2ccccc2)[C@@H]1NC(=O)CCNC(=N)N (stereo partly drawn) [Compound 101] | + (Indicates inhibition greater than . . . 50%)
CO[C@H]1[C@H](O)[C@@H](COCc2ccc(Cl)cc2)OC(OCCc2ccccc2)[C@@H]1NC(=O)CNC(=N)N (stereo partly drawn) [Compound 104] | + (Indicates inhibition greater than . . . 50%)
CO[C@H]1[C@H](O)[C@@H](COCc2ccc(Cl)cc2)OC(OCCc2ccccc2)[C@@H]1NC(=O)CCNC(=N)N (stereo partly drawn) [Compound 105] | + (Indicates inhibition greater than . . . 50%)
CO[C@H]1[C@H](O)[C@@H](COCc2ccc(Cl)cc2)OC(OCCc2ccccc2)[C@@H]1NC(=O)CCCNC(=N)N (stereo partly drawn) [Compound 107] | + (Indicates inhibition greater than . . . 50%)
CO[C@H]1[C@H](O)[C@@H](COCc2cccc(O)c2)OC(OCc2ccc(-c3ccccc3)cc2)[C@@H]1NC(=O)CNC(=N)N (stereo partly drawn) [Compound 108] | + (Indicates inhibition greater than . . . 50%)
CO[C@H]1[C@H](O)[C@@H](COCc2cccc(O)c2)OC(OCc2ccc(Cl)cc2)[C@@H]1NC(=O)CCNC(=N)N (stereo partly drawn) [Compound 110] | + (Indicates inhibition greater than . . . 50%)
CO[C@H]1[C@H](O)[C@@H](COCc2ccc(-c3ccccc3)cc2)OC(OCc2cccc(O)c2)[C@@H]1NC(=O)CNC(=N)N (stereo partly drawn) [Compound 112] | + (Indicates inhibition greater than . . . 50%)
CO[C@H]1[C@H](O)[C@@H](COCc2ccc(-c3ccccc3)cc2)OC(OCc2cccc(O)c2)[C@@H]1NC(=O)CCNC(=N)N (stereo partly drawn) [Compound 113] | + (Indicates inhibition greater than . . . 50%)
CO[C@H]1[C@H](O)[C@@H](COCc2ccc(-c3ccccc3)cc2)OC(OCc2cccc(O)c2)[C@@H]1NC(=O)CCCN (stereo partly drawn) [Compound 114] | + (Indicates inhibition greater than . . . 50%)
CO[C@H]1[C@H](O)[C@@H](COCc2ccc3ccccc3c2)OC(OCc2cccc(O)c2)[C@@H]1NC(=O)CCCNC(=N)N (stereo partly drawn) [Compound 115] | + (Indicates inhibition greater than . . . 50%)
